Experimental findings from patent US20220363710A1, “SMALL-MOLECULE COMPOUND HAVING A2A ADENOSINE RECEPTOR ANTAGONISM” (ACADEMY OF MILITARY MEDICAL SCIENCES, priority 2019, published 2022) are described below.

In series [1] the target is T1, (human) A2A adenosine receptor (Homo sapiens, UniProt P29274).
T1 construct: purchased PerkinElmer Research Products (Boston, Mass.); host or cells: HEK-293 cells, stably transfected; membrane preparation
Kind of series: Radioligand binding test ([3H]CGS21680 displacement, hA2A HEK-293 cell membranes). The method, then: Cell membranes stably transfected with (human) A2A adenosine receptor were prepared in HEK-293 cells. The cell membranes were obtained from PerkinElmer Research Products (Boston, Mass.).
CGS 21680 (2-[p-(2-carboxyethyl)phenylethylamino]-5′-ethylcarboxamidoadenosine) was purchased from Selleck (Shanghai, CN).
The A2A adenosine receptors used were all expressed in the cell membranes. The compound was diluted 3 times serially with DMSO (Solarbio, D8371-250 ml) to generate compound source plates with 10 different concentrations (10 μM, 3.3 μM, 1.1 μM, 0.37 μM, 0.12 μM, 0.0412 μM, 0.0137 μM, 0.0046 μM, 0.0015 μM, 0.0005 μM), 250 nL of compound was added to 384-well Opti-plate, sealed with parafilm. […] (final 25 nM) was added to the diluted cell membrane and mixed well. 50 μL of the prepared dilution solution of cell membrane was transferred to the 384-well Opti-plate containing compound and incubated at 25° C. for 90 minutes. 100 μL of 0.5% Polyethyleneimine solution (PEI) was added to […]-96 GF/B filter plate, and soaked for 90 minutes at 4° C., then 500 μL of washing buffer/well (50 mM Tris-HCl, pH 7.4, 154 mM NaCl) was transferred with Cell Harvester to wash the […]-96 GF/B filter plate twice. The mixed system in the Opti-plate was transferred to the washed […]-96 GF/B filter plate, 500 μL of washing buffer/well (50 mM Tris-HCl, pH 7.4, 154 mM NaCl) was used to wash the […]-96 GF/B filter plate 9 times. Incubation was performed at 37° C. for 3 minutes. 40 μL of ULTIMA GOLD scintillation solution (Perkin Elmer, Cat #77-16061) was added to each well, CPM (count per minute) value was read by a MicroBeta liquid scintillation counter (PerkinElmer).

In series [2] the target is human adenosine receptor A2A (Homo sapiens, UniProt P29274). The series is described as follows: A2A adenosine receptor cAMP test (LANCE Ultra cAMP, hADORA2A-HEK293 cells). The class given is cell-based. From the text: A2A Adenosine Receptor cAMP Test
Chain of human adenosine receptor A2A (P29274 whole entry): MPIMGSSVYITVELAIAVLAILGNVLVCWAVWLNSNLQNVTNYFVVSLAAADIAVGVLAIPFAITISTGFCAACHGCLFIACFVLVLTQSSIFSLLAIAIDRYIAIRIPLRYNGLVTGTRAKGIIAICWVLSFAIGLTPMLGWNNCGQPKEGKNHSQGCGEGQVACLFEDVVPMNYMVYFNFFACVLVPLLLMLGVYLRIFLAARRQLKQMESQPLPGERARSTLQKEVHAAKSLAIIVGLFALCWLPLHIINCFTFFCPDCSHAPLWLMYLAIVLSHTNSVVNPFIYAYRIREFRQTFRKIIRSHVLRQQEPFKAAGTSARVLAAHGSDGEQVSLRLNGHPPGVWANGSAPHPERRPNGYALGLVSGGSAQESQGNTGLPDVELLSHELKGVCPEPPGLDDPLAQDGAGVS
Experimental reagents and consumables: DMEM/F12, G418, Penicillin-Streptomycin, Versene Solution, HEPES, Hank's Buffered Saline Solution, PBS (pH 7.4, 1×, sterile), FBS, BSA Stabilizer 7.5%, Rolipram, NECA were separately purchased from Gibico, Hyclone and Sigma. LANCE® Ultra cAMP kit (Eu-cAMP tracer, Ulight-anti-cAMP reagent, cAMP detection buffer) and hADORA2A-HEK293 cells were purchased from PerkinElmer Research Products (Boston, Mass.). All other reagents were of analytical grade and obtained from commercial sources. 384-well polypropylene microplate and 384-well solid white plate were purchased from Labcyte and Corning, respectively.
Experimental instruments: TECAN automated liquid handling workstation, Echo Acoustic Liquid Handler and EnVison multimode plate reader were purchased from TECAN, Labcyte and […], respectively.
The cells stably expressing human adenosine receptor A2A (hADORA2A-HEK293 cells) were cultured in DMEM/F12 medium containing 10% FBS, 1× Penicillin-Streptomycin and 400 μg/ml G418 in a 37° C. and 5% CO2 environment. Before the experiment, the cells were digested with Versene solution, and the cells were collected by centrifugation at 200 g and room temperature for 5 minutes, and finally resuspended with assay buffer (Hank's buffered saline solution, containing 5 mM HEPES, 0.1% BSA stabilizer and 10 μM Rolipram, pH 7.4). The TECAN automated liquid handling workstation was used to dilute the compound in a 384-well polypropylene microplate with DMSO to 11 concentration points in a 3-fold gradient to prepare the compound source plate, in which the 11 concentration points of the compound were 10 mM, 3.33 mM, 1.11 mM., 0.37 mM, 0.12 mM, 0.041 mM, 0.013 mM, 4.57×10^−3 mM, 1.52×10^−3 mM, 5×10−4 mM and 1.7×10^−4 mM. The Echo Acoustic Liquid Handler (Labcyte) was used to transfer the test compound from the compound source plate to an assay plate, in which the transfer volume of the compound was 10 nl/well. The hADORA2A-HEK293 cell suspension was diluted with assay buffer to 30,000 cells/ml, and the cell suspension was transferred to the assay plate at a volume of 10 μl/well (300 cells/well). The assay plate was centrifuged at 150 g for 1 minute and pre-incubated at room temperature for 30 minutes. The Eu-cAMP tracer working solution (Eu-cAMP tracer 40 μl, cAMP detection buffer 1.96 ml) (5 μl/well) was added to the assay plate, and then the Ulight-anti-cAMP working solution (13 μl of Ulight-anti-cAMP reagent and 1.95 ml of cAMP detection buffer) (5 μl/well) was added to the assay plate. The assay plate was rotated at 150 g for 30 seconds and incubated at room temperature for 30 minutes. The EnVison multimode plate reader (PerkinElmer) was used determine the level of cyclic adenosine monophosphate in the final solution (λex=320 nm, λem=665 nm & 615 nm). The EC50 (nM) value of the compound interacting with the A2A adenosine receptor to stimulate the production of cyclic adenosine monophosphate was calculated and the titer of the compound function was expressed as the EC50 (nM) value.
When the test compounds interacted with A2AAR, the EC50 (nM) values for stimulating the production of cyclic AMP were shown in Table 2.

Read-outs that look alike come from different tables or passages of the source. A value given as a limit tells only on which side of the number the result lay.

T1 sequence (P29274 whole entry): as above

The term IC50 denotes the concentration that gives 50% inhibition. For orientation: Ki means the equilibrium dissociation constant of an inhibitor or competing ligand from its target. A word on the EC50: it is the midpoint of the concentration-response curve. Usually melting point stands for the temperature of the solid-liquid transition. Regarding `OC[C@H]1O[C@@H](n2cnc3c2ncn2c(-c4cccc(OCc5ccccc5)c4)nnc32)[C@H](O)[C@@H]1O` [Compound 5, (2R,3R,4S,5R)-2-{3-[3-(benzyloxy)phenyl]-7H-[1,2,4]triazolo[3,4-i]purin-7-yl}-5-(hydroxymethyl)tetrahydrofuran-3,4-diol], the melting point is 76 °C. For the same compound, in series [1] ([3H]-CGS 21680 25 nM, hA2A HEK-293 cell membrane, 25° C., 90 minutes, read-out: IC50 (nM), compounds binding to A2A adenosine receptor), the IC50 came out at 6.2 nM. The Ki in series [1] (read-out: Ki (nM), inhibition constant for binding to A2A adenosine receptor) was 2.9 nM. For the same compound, the “agonistic activity at hA2AAR (cAMP production)” value in series [2] is reported as “no agonistic activity”. Besides, the EC50 in series [2] (stimulating the production of cyclic AMP, read-out: cAMP EC50) was more than 10000 nM. For the same compound, the EC50 in series [2] (stimulating the production of cyclic adenosine monophosphate, read-out: cAMP EC50 values) was more than 10000 nM.
